Laboratory results published in the supplement of paper PMC13380429.
Structures can show the parent of a compound that is named as a salt.

Columns and labels:
Conditions in all cases: 72 h
Caco-2 [1] = test: cell viability relative to DMSO; higher = less toxic
Calu-3 [2] = test: as above
HepG2 [3] = test: as above
U2OS [4] = test: as above
Vero E6 [5] = test: as above
Caco-2 [6] = test: relative viability EC50 (midpoint between 100% and the lowest measured viability); higher = less toxic
Calu-3 [7] = test: as above
HepG2 [8] = test: as above
U2OS [9] = test: as above
Vero E6 [10] = test: as above
Caco-2 [11] = test: drug sensitivity score (DSS) for viability; higher = more toxic; extreme values may be limits of the assay
Calu-3 [12] = test: as above
HepG2 [13] = test: as above
U2OS [14] = test: as above
Vero E6 [15] = test: as above

Compound	cell viability (Caco-2 [1]; 1 nM) [%]	cell viability (Caco-2 [1]; 10 nM) [%]	cell viability (Caco-2 [1]; 100 nM) [%]	cell viability (Caco-2 [1]; 1000 nM) [%]	cell viability (Caco-2 [1]; 10000 nM) [%]	cell viability (Calu-3 [2]; 1 nM) [%]	cell viability (Calu-3 [2]; 10 nM) [%]	cell viability (Calu-3 [2]; 100 nM) [%]	cell viability (Calu-3 [2]; 1000 nM) [%]	cell viability (Calu-3 [2]; 10000 nM) [%]	cell viability (HepG2 [3]; 1 nM) [%]	cell viability (HepG2 [3]; 10 nM) [%]	cell viability (HepG2 [3]; 100 nM) [%]	cell viability (HepG2 [3]; 1000 nM) [%]	cell viability (HepG2 [3]; 10000 nM) [%]	cell viability (U2OS [4]; 1 nM) [%]	cell viability (U2OS [4]; 10 nM) [%]	cell viability (U2OS [4]; 100 nM) [%]	cell viability (U2OS [4]; 1000 nM) [%]	cell viability (U2OS [4]; 10000 nM) [%]	cell viability (Vero E6 [5]; 1 nM) [%]	cell viability (Vero E6 [5]; 10 nM) [%]	cell viability (Vero E6 [5]; 100 nM) [%]	cell viability (Vero E6 [5]; 1000 nM) [%]	cell viability (Vero E6 [5]; 10000 nM) [%]	relative viability EC50 (Caco-2 [6]) [µM]	relative viability EC50 (Calu-3 [7]) [µM]	relative viability EC50 (HepG2 [8]) [µM]	relative viability EC50 (U2OS [9]) [µM]	relative viability EC50 (Vero E6 [10]) [µM]	drug sensitivity score (Caco-2 [11])	drug sensitivity score (Calu-3 [12])	drug sensitivity score (HepG2 [13])	drug sensitivity score (U2OS [14])	drug sensitivity score (Vero E6 [15])
CC(C)(C)c1cc(C(=O)/C(C#N)=N/Nc2cccc(Cl)c2)no1 [ESI-09]	99.8	96.1	104	96.6	37	103	93.7	91.9	102	95.9	109	102	102	103	31.2	98.1	96.1	98.4	96.1	87.6	90	94.2	91	99.3	83.3	2.75	> 10	3.4	> 10	> 10	3.9	0	3.5	0.2	0
CN[C@@H](C)C(=O)N[C@H](C(=O)N1CCC[C@H]1C(=O)Nc1snnc1-c1ccccc1)C1CCCCC1 [GDC-0152]	98.4	104	98.9	102	92.2	104	106	97.4	87.9	84.9	105	105	99.6	97.4	96	98.1	109	95.7	100	94.3	97	98.9	102	103	106	> 10	> 10	> 10	> 10	> 10	0	1.1	0	0	0
Cc1cc(OCc2nc(-c3ccccc3Cl)cs2)ccc1OCC(=O)O [GPR120-modulator-1]	102	97.5	103	98.5	92.8	96.4	99.8	99.6	110	86.9	104	93.4	101	101	92.8	92.3	96.8	92.2	102	94.3	101	102	102	97.9	97.1	> 10	> 10	> 10	> 10	> 10	0	0	0	0	0
CC(C)c1onc(-c2c(Cl)cccc2Cl)c1COc1ccc(/C=C/c2cccc(C(=O)O)c2)c(Cl)c1 [GW-4064]	94	99.4	102	91	81.4	93.9	107	103	102	96.5	105	103	92.4	99.2	93.8	98.2	106	96.4	93.3	97.7	95.5	99.8	94	93.8	95.7	> 10	> 10	> 10	> 10	> 10	1.4	0	0	0	0
CCC(=O)NC[C@H](Cc1ccc(OCCc2nc(-c3ccccc3)oc2C)cc1)N/C(C)=C\C(=O)c1ccc(C(F)(F)F)cc1 [GW-6471]	94.5	102	106	97.8	93.6	101	94.7	103	97.4	102	97.3	99.5	93.8	101	109	96.6	104	101	100	95.4	98.6	97.6	96.1	89.3	94.8	> 10	> 10	> 10	> 10	> 10	0	0	0	0	0
C[N+](C)(C)CCCCCNCC12CC3CC(CC(C3)C1)C2 [IEM1460]	96.2	103	95	99.6	88.1	91.1	104	96.1	98.2	98.4	101	85.2	104	93.9	106	94.1	102	99	103	95.7	105	91	105	92.5	103	> 10	> 10	> 10	> 10	> 10	0.1	0	0	0	0
COC(=O)c1csc(C(=O)c2c[nH]c3ccccc23)n1 [ITE]	96.1	105	101	108	94.2	105	101	103	105	97.5	104	112	92.8	84.8	85.5	101	104	97.1	102	96.3	95	96.1	92.1	98.6	97.4	> 10	> 10	> 10	> 10	> 10	0	0	2	0	0
CCCCCOc1c(OC)ccc2cc(C(=O)NCc3ccc4c(c3)OCO4)c(=O)[nH]c12 [JTE-907]	90.9	91.1	99.9	101	75.7	102	93.9	97.3	105	90.8	95	97.4	100	115	103	100	99.7	103	99.5	97.4	90.8	99.8	94.5	94.3	110	> 10	> 10	> 10	> 10	> 10	0.8	0	0	0	0
COc1cc2nccc(Oc3ccc(NC(=O)Nc4ccc(F)cc4F)c(F)c3)c2cc1OC [KI-8751]	95.8	91.8	102	92.4	99.6	94.1	97.6	86.8	95.7	93.1	97.5	116	106	101	95.5	98.8	97.6	99.2	99.2	102	101	107	98.9	107	107	> 10	> 10	> 10	> 10	> 10	0	0	0	0	0
CC(C)C(=O)Nc1ncc(-c2cc(C(F)F)nn2-c2c(Cl)cccc2Cl)s1 [LIMKi-3]	91.4	105	92.8	94.6	97.3	88.4	92.7	98.5	118	115	110	98	104	106	110	98.1	106	96.3	100	88.9	106	101	101	92.2	96	> 10	> 10	> 10	> 10	> 10	0	0	0	0	0
COC(=O)C(c1ccccc1)C1CCCCN1 (stereo not given) [METHYLPHENIDATE HYDROCHLORIDE]	97	99.5	91.2	103	104	100	102	91.1	105	101	108	95.2	91.4	102	99	96.5	102	92.1	95.3	98.6	99.7	97.3	98.5	98.9	102	> 10	> 10	> 10	> 10	> 10	0	0	0	0	0
Cc1cnc(-c2ccccc2C(C)C)nc1NCc1ccc(-n2ccnn2)cc1 [ML323]	90.2	101	92.2	95.8	81	91.6	108	105	97.3	110	99.1	94.2	112	96.5	82.2	94.9	103	95.8	102	97.9	89.6	90	87.6	89.7	99.4	> 10	> 10	> 10	> 10	> 10	0.5	0	0.8	0	0
NC(=O)CNCCC(c1ccccc1)c1ccccc1 [N20C]	107	98.4	89.4	97.2	103	109	97.5	96.6	99.4	106	97.3	93.6	106	111	94.9	106	99.4	100	99.2	102	96.9	106	98.2	98.1	97.6	> 10	> 10	> 10	> 10	> 10	0	0	0	0	0
CC(=O)N[C@@H](Cc1ccc(O)cc1)C(=O)O [N-acetyl-tyrosine]	92.7	92.8	91	95.6	102	105	107	108	106	94.6	93.9	88.5	93.8	97.7	98.2	95.3	101	96.6	101	107	98.6	93.4	94.3	95	101	> 10	> 10	> 10	> 10	> 10	0	0	0	0	0
